What was measured:
carrageenan paw edema = assay: rat carrageenan paw edema assay; type: in vivo, rat (Sprague-Dawley); conditions: for ED50: Rattus norvegicus, po, 3 h, read-out: Oral ED50 (95% C.L.); for % Change: 1 hour prior to carrageenan, edema at 3 hours
Protocol: The compounds of the invention are tested in the rat carrageenan paw edema assay to determined their ability to inhibit the acute inflammatory response. 140-180 gm male Sprague-Dawley rats, in groups of 6 animals, are injected subcutaneously in the right paw with 0.1 ml of 1% carrageenan at zero time. Mercury plethysmographic readings (ml) of the paw are made at zero time and 3 hours later. Test compounds are suspended or dissolved in 0.5% methylcellulose and given perorally 1 hour prior to carrageenan administration. The increase in paw volume (edema in ml.) produced by the carrageenan is measured. Paw edema is calculated (3 hour volume minus zero time volume), and percent inhibit of edema is determined. Unpaired Student's t-test is used to determine statistical significance.

[1] = test system: IL 1-induced release of neutral protease from rabbit articular chondrocytes; assay: inhibition of IL 1-induced release of neutral protease from rabbit articular chondrocytes (azocoll assay); type: cell-based, rabbit (New Zealand White); conditions: Oryctolagus cuniculus, Chondrocyte, compound added 10 min before human IL 1, 24 h stimulation, read-out: % Inhibition (I.S.D.)
Protocol: The ability of the compounds of the inventions to inhibit interleukin 1 is measured by the ability of the test compounds to inhibit the IL 1-induced release of neutral protease from rabbit articular chondrocytes.
Male New Zealand White rabbits are anesthetized with 50 mg/kg of ketamine (i.m.) and killed by an intracardiac injection of 3 mls. of Nembutal. The knee joints of both legs are resected and the articular surfaces are exposed. Cartilage slices are obtained using a scalpel and are placed in a tissue culture dish (100 mm diameter) containing 10 mls of Hank's balanced salt solution (HBSS). The chondrocytes within the cartilage slices are then liberated by a series of enzyme digestions. The slices are incubated for 10 min. at 37° C. in 0.05% hyaluronidase (Sigma H-3884), rinsed with HBSS and incubated with 0.2% trypsin (Sigma T-2395) for 10 min. at 37° C. The slices are rinsed again and incubated for 10 mins. at 37° C. with 1.2% collagenase (Sigma C-5138). The slices are then rinsed again with HBSS and resuspended in 10 ml of Ham's F-12 medium containing 10% fetal bovine calf serum (FCS) and 0.2% collagenase and incubated overnight at 37° C. in a 5% CO2 incubator. The next day, the medium containing the digested cartilage fragments and liberated chondrocytes is transferred to a 15 ml centrifuge tube and the cells are collected by centrifugation and washed twice and resuspended in Ham's F-12 medium. The cells are then plated into 24-well tissue culture plates (2×10^5 cells/well) and incubated at 37° C. until confluent (usually 4-6 days).
The confluent chondrocytes are rinsed twice with serum-free Ham's F-12 medium and 1 ml is added to each well. Fifty μl of purified human IL 1 (100 Units/ml; Genzyme Corporation, Boston, MA) is then added to stimulate these cells to secrete neutral protease. To measure drug effects, the cells are treated with test compound 10 min. prior to addition of IL 1. The standard screening dose is 10 μM. Twenty-four hours after IL 1 stimulation, supernatant fluids are collected and assayed for neutral protease activity.
The neutral protease activity of chondrocyte supernatant fluids is determined by their ability to degrade an insoluble protease substrate, azocoll (Sigma). Supernatants are treated for 10 min. at room temperature with 350 μM p-aminophenylmurcuric acetate to activate the latent enzyme. Three hundred μl of supernatant is then mixed with 500 μl of a 20 mg/ml suspension of azocoll and incubated at 37° C. for 18-24 hrs. with gentle rocking. The mixtures are centrifuged and the amount of substrate hyrolyzed is determined by measuring the absorbance of the supernatant at 520 nm.
Drug effects are calculated as the % change in enzyme activity (absorbance)by supernatants from drug-treated chondrocytes relative to enzyme activity of supernatants from vehicle-treated chondrocytes as follows: [formula]

Structure (SMILES) | inhibition at 10 µM [1] [%] | also measured
CC(=O)Oc1ccccc1C(=O)O [Aspirin, reference compound] |  | ED50 (carrageenan paw edema): 145 mg/kg
CCCCN1CCc2nc3cc(Cl)ccc3c(Cl)c2C1 [Example 1, 2-Butyl-7,10-dichloro-1,2,3,4-tetrahydrobenzo[b][1,6]naphthyridine] | 3 | 
CCCCCCCCN1CCc2nc3cc(Cl)ccc3c(Cl)c2C1 [Example 2, 7,10-dichloro-1,2,3,4-tetrahydro-2-octylbenzo[b][1,6]naphthyridine] | 51 | 
C=CCCCN1CCc2nc3cc(Cl)ccc3c(Cl)c2C1 [Example 4, 7,10-Dichloro-1,2,3,4-tetrahydro-2-(4-pentenyl)benzo[b][1,6]naphthyridine] | 12 ± 5 | 
CN1CCc2nc3cc(Cl)ccc3c(Cl)c2C1 [Example 5] | 26 ± 23 | 
CN1CCc2nc3ccc(Cl)cc3c(Cl)c2C1 [Example 6, 8,10-Dichloro-1,2,3,4-tetrahydro-2-methylbenzo[b][1,6]naphthyridine] | 13 ± 6 | 
CN1CCc2nc3cc(Cl)ccc3c(NNc3ccccc3)c2C1 [Example 7, 1-(7-Chloro-1,2,3,4-tetrahydro-2-methylbenzo[b][1,6]-naphthyridin-10-yl)-2-phenylhydrazine] | 78 ± 13 | inhibition at 1 µM [1]: 35 ± 22%; % Change (carrageenan paw edema; 10 mg/kg perorally): 41%; % Change (carrageenan paw edema; 30 mg/kg perorally): 64%; % Change (carrageenan paw edema; 90 mg/kg perorally): 68%; % Change (carrageenan paw edema; 100 mg/kg perorally): 59%
CCCCN1CCc2nc3cc(Cl)ccc3c(NNc3ccccc3)c2C1 [Example 8, 2-Butyl-7-chloro-1,2,3,4-tetrahydro-10-(2-phenyl-hydrazino)benzo[b][1,6]naphthyridine] |  | inhibition at 1 µM [1]: 22 ± 6%
CCCCCCCCN1CCc2nc3cc(Cl)ccc3c(NNc3ccccc3)c2C1 [Example 9, 7-Chloro-1,2,3,4-tetrahydro-2-octyl-10-(2-phenyl-hydrazino)benzo[6][1,6]naphthyridine] |  | inhibition at 1 µM [1]: 22 ± 6%
C=CCN1CCc2nc3cc(Cl)ccc3c(NNc3ccccc3)c2C1 [Example 10, 7-Chloro-1,2,3,4-tetrahydro-10-(2-phenylhydrazino)-2-(2-propenyl)benzo[b][1,6]naphthyridine, dihydrate] | 62 ± 2 | 
C=CCCCN1CCc2nc3cc(Cl)ccc3c(NNc3ccccc3)c2C1 [Example 11, 7-Chloro-1,2,3,4-tetrahydro-2-(4-pentenyl)-10-(2-phenyl-hydrazino)benzo[b][1,6]naphthyridine, sesquihydrate] | 11 ± 26 | 
COCCNc1c2c(nc3cc(Cl)ccc13)CCN(C)C2 [Example 12, 7-Chloro-1,2,3,4-tetrahydro-N-(2-methoxyethyl)-2-methylbenzo[b]-[1,6]naphthyridin-10-amine, three quarter hydrate] | 62 ± 28 | 
CN1CCc2nc3cc(Cl)ccc3c(NCCN3CCOCC3)c2C1 [Example 13, 7-Chloro-1,2,3,4-tetrahydro-2-methyl-N-(2-(4-morpholinyl)-ethyl)benzo[b][1,6]naphthyridin-10-amine] | 4 ± 13 | 
CN1CCc2nc3cc(Cl)ccc3c(Nc3ccccc3)c2C1 [Example 14, 10-Anilino-7-chloro-1,2,3,4-tetrahydro-2-methylbenzo[b][1,6]naphthyridine] | 14 ± 4 | 
CN1CCc2nc3cc(Cl)ccc3c(Oc3ccccc3)c2C1 [Example 15, 7-Chloro-1,2,3,4-tetrahydro-2-methyl-10-phenoxybenzo[b][1,6]naphthyridine] | 22 ± 28 | 
CN1CCN(c2c3c(nc4cc(Cl)ccc24)CCN(C)C3)CC1 [Example 16, 7-Chloro-1,2,3,4-tetrahydro-2-methyl-10-(4-methyl-1-piperazinyl)benzo[b][1,6]naphthyridine] |  | inhibition at 5 µM [1]: 14 ± 3%
CN1CCc2nc3cc(Cl)ccc3c(Sc3ccccc3)c2C1 [Example 17, 7-Chloro-1,2,3,4-tetrahydro-2-methyl-10-thiophenylbenzo[b][1,6]naphthyridine] | 44 ± 21 | 
CN1CCc2nc3ccc(Cl)cc3c(Oc3ccccc3)c2C1 [Example 18, 8-Chloro-1,2,3,4-tetrahydro-2-methyl-10-phenoxybenzo[b][1,6]naphthyridine] | 9 ± 28 | 
CN1CCc2nc3ccc(Cl)cc3c(Nc3ccccc3)c2C1 [Example 19, 10-Anilino-8-chloro-1,2,3,4-tetrahydro-2-methylbenzo[b][1,6]naphthyridine] | 23 ± 25 | 
CN1CCc2nc3ccc(Cl)cc3c(NN)c2C1 [Example 20, (8-Chloro-1,2,3,4-tetrahydro-2-methylbenzo[b][1,6]naphthyridin-10-yl)hydrazine] |  | inhibition at 5 µM [1]: 18%
CN1CCc2nc3ccc(Cl)cc3c(SCCCN)c2C1 [Example 21, 10-(3-Aminopropylthio)-8-chloro-1,2,3,4-tetrahydro-2-methylbenzo[b][1,6]naphthyridine] | 42 ± 26 | 
COc1ccc2c(c1)c(CC(=O)O)c(C)n2C(=O)c1ccc(Cl)cc1 [Indomethacin, reference compound] |  | ED50 (carrageenan paw edema): 3.7 mg/kg

Reference: patent US4816464A, “10-Substituted benzo[b][1,6]naphthyridines as inhibitors of interleukin 1” (American Home Products Corporation, priority 1987, dated 1989)
